Residue numbers refer to the chain shown, from its start. Where “and” joins values, the source holds several entries; their conditions need not be identical. Equal values may be shown once. Entries after “also recorded” stand apart in the source; their conditions may differ.
Tests used:
WT TrpR = biological target: T1, WT TrpR (Escherichia coli, UniProt P0A881); assay: WT TrpR system, repression of GFP expression; assay type: cell-based, E. coli
T1 construct: trpR (WT); expressed in transfected cells; host or cells: E. coli Nissle 1917 (EcN), genomic trpR knocked out; plasmid pMBA035 (P17-trpR)
Text: Among the various aspects of the present disclosure is the provision of systems and methods for detecting aromatic compounds. An aspect of the present disclosure provides for a method of protein engineering (e.g., a regulator protein) comprising: mutagenizing specific amino acids in and around a ligand-binding site of a protein, wherein the mutagenizing enables changes in ligand-protein binding specificity while maintaining protein-DNA interaction and thus downstream gene expression control; and/or linking ligand-protein binding to output response. An aspect of the present disclosure provides for an engineered molecular sensor. […] In some embodiments, the engineered regulator protein or the ligand-protein binding site or a sequence encoding the engineered regulator protein or the ligand-protein binding site of the engineered regulator protein is at least about 80% identical to a WT regulator protein or a WT regulator ligand-protein binding site; or a sequence encoding the engineered regulator protein or ligand binding site thereof is at least about 80% identical to a sequence encoding the WT regulator protein or the WT regulator ligand-protein binding site; or functional fragment thereof, the engineered regulator protein having ligand binding activity. In some embodiments, the engineered molecular sensor is optionally genomically integrated into a microorganism, optionally selected from a probiotic or is a purified cell-free sensor. In some embodiments, the engineered regulator protein or enzyme is an engineered TrpR, TyrR, TynA, or FeaR protein. […] In some embodiments, the engineered regulator protein is an engineered TrpR and is a tryptophan (Trp)-, 5-hydroxytryptophan (5-HTP)-, or tryptamine (Trpta)-specific sensor. In some embodiments, the engineered regulator protein or enzyme is an engineered TrpR, TyrR, TynA, or FeaR, and/or wherein the engineered TrpR, TyrR, TynA, or FeaR comprises at least one mutation to a ligand-protein binding site having specific amino acid binding activity. […]

TrpR variant OD = biological target: T2, TrpR variant OD (Escherichia coli, UniProt P0A881, A80L/G78C/I79C/K72S/T83R); assay: TrpR OD variant with synthetic Ptrp promoter, repression of GFP expression; assay type: cell-based, E. coli
T2 construct: trpR (OD); expressed in transfected cells; host or cells: E. coli Nissle 1917 (EcN), genomic trpR knocked out; plasmid pMBA103 (P17-trpR(OD))
Text: (§1) Among the various aspects of the present disclosure is the provision of systems and methods for detecting aromatic compounds. An aspect of the present disclosure provides for a method of protein engineering (e.g., a regulator protein) comprising: mutagenizing specific amino acids in and around a ligand-binding site of a protein, wherein the mutagenizing enables changes in ligand-protein binding specificity while maintaining protein-DNA interaction and thus downstream gene expression control; and/or linking ligand-protein binding to output response. An aspect of the present disclosure provides for an engineered molecular sensor. […] In some embodiments, the engineered regulator protein or the ligand-protein binding site or a sequence encoding the engineered regulator protein or the ligand-protein binding site of the engineered regulator protein is at least about 80% identical to a WT regulator protein or a WT regulator ligand-protein binding site; or a sequence encoding the engineered regulator protein or ligand binding site thereof is at least about 80% identical to a sequence encoding the WT regulator protein or the WT regulator ligand-protein binding site; or functional fragment thereof, the engineered regulator protein having ligand binding activity. […]

TrpR variant O1 = biological target: T3, TrpR variant O1 (Escherichia coli, UniProt P0A881, A80R/G78N/I79W/K72S/T83K); assay: TrpR O1 variant with synthetic Ptrp promoter, repression of GFP expression; assay type: cell-based, E. coli
T3 construct: trpR (O1); expressed in transfected cells; host or cells: E. coli Nissle 1917 (EcN), genomic trpR knocked out; plasmid pMBA173 (P17-trpR(O1))
Text: as §1

[1] = test system: TynA-FeaR sensors (best performing variants); assay: TynA-FeaR sensor activity and specificity in richer media, amines and carboxylic acids; assay type: cell-based, E. coli; conditions: 1 mM, 24 h; minimal medium with casamino acids and LB medium; FIG. 29
Text: FIG. 29A-FIG. 29B. TynA-FeaR sensor activity and specificity in richer media, related to FIG. 6A-FIG. 6E. […] PtynA was regulated by the specified variants of TynA and FeaR. The response of the G494S TynA mutant sensors was not determined (ND) for DOPAC, PAA, HPAA, or IAA. Values and error bars are the average and standard deviation of biological triplicate, respectively.
To further confirm the specificity of the best performing sensors, the response of each to the four amines and the four respective carboxylic acids, 3,4-dihydroxyphenylacetic acid (DOPAC), phenylacetic acid (PAA), 4-hydroxyphenylacetic acid (HPAA), and indole-3-acetic acid (IAA) was tested in minimal medium with casamino acids and LB medium (see e.g., FIG. 29A-FIG. 29B). […] All mutant sensors remained specific to PEA or Tyra in minimal medium with casamino acids.
(§2) Flow cytometry was performed as previously described. […] Cytometry data was gated by forward and side scatter.

[2] = test system: wild-type TynA and A81L FeaR; assay: microbe, parasite or virus in culture; assay type: cell-based, E. coli MG1655; conditions: A81L FeaR; 24 h; FIG. 5C
Protocol: as §2

R10F TyrR = biological target: T4, R10F TyrR (Escherichia coli, UniProt P07604, R10F); assay: cell-based; assay type: cell-based, E. coli
T4 construct: expressed in transfected cells; host or cells: E. coli Nissle 1917 (EcN), plasmid pAGR473
Protocol: (§3) Everything but (Eb) medium was prepared by supplementing M9 minimal medium with 1 mM MgSO4, […]), 0.4% w/v glucose, and all non-aromatic amino acids (0.8 mM alanine, 5 mM arginine, 0.4 mM asparagine, 0.4 mM aspartate, 0.1 mM cysteine, 0.6 mM glutamate, 0.6 mM glutamine, 0.8 mM glycine, 0.2 mM histidine, 0.4 mM isoleucine, 0.8 mM leucine, 0.4 mM lysine, 0.2 mM methionine, 0.4 mM proline, 10 mM serine, 0.4 mM threonine, and 0.6 mM valine). […] Experimental cultures were prepared by diluting overnight cultures 200× into 0.6 mL fresh Eb medium supplemented with the respective ligands (Phe and Tyr) in 2 mL 96-deep well plates (Eppendorf, Hamburg, Germany). Cultures were grown for 8 h at 37° C. and 250 rpm before sampled for fluorimetry or flow cytometry analysis. All medium was supplemented with the relevant antibiotics for plasmid maintenance ([…]).
(§4) […] culture samples were collected and transferred to 96-well assay microplates (clear, flat bottom black, Greiner Bio-One). The fluorescence and culture absorbance (Abs) were measured using a Tecan microplate reader (Infinite M200 Pro) as previously described. The fluorescence of GFP was measured with an excitation at 483 nm and emission at 530 nm. The Abs of the samples was measured at 600 nm. The measured fluorescence was normalized by dividing by the Abs and subtracting the same ratio obtained from non-fluorescent wild-type cells (Equation 1).
as §2

wild-type TyrR = biological target: T5, wild-type TyrR (Escherichia coli, UniProt P07604); assay: cell-based; assay type: cell-based, E. coli
T5 construct: tyrR (WT); expressed in transfected cells; host or cells: E. coli Nissle 1917 (EcN)
Protocol: as §3, §4, §2

E274Q+D103S TyrR = biological target: T6, E274Q+D103S TyrR (Escherichia coli, UniProt P07604, D103S/E274Q); assay: cell-based; assay type: cell-based, E. coli; conditions: ligand alone, listed as Tyr
T6 construct: expressed in transfected cells; host or cells: E. coli Nissle 1917 (EcN), plasmid pAGR159
Protocol: as §3, §4, §2

E274Q+T14V TyrR = biological target: T7, E274Q+T14V TyrR (Escherichia coli, UniProt P07604, E274Q/T14V); assay: cell-based; assay type: cell-based, E. coli; conditions: ligand alone, listed as Tyr
T7 construct: expressed in transfected cells; host or cells: E. coli Nissle 1917 (EcN), plasmid pAGR157
Protocol: as §3, §4, §2

[3] = test system: G494S TynA with A81T FeaR; assay type: cell-based, E. coli MG1655; conditions: G494S*; 24 h; FIG. 4C
Protocol: as §2

PtynA = assay: Ligand specificity of 20 FeaR variants at the 81st position with wild-type TynA, fluorescence from PtynA; assay type: cell-based, E. coli; conditions: 0.25 mM DA, PEA, Tyra, Trypta, 24 h
Text: FIG. 5A-FIG. 5D. Engineering FeaR to identify improved phenylethylamine-specific sensors (A) Computationally predicted ligand-binding region of FeaR. Key residues are shown with (magenta) and without (green) phenylethylamine-aldehyde (PEA-aldehyde; cyan) complexed. The structure was predicted using the Robetta web server. Ligand docking was modeled using the Rosetta Ligand Docking Server hosted by ROSIE. The image was generated using PyMOL. […] PtynA was regulated by wild-type TynA and 20 different FeaR variants with the specified amino acid in the 81st position. Residues for each group are listed from left to right in order of increasing size. Non-zero values and error bars are the average and standard deviation of biological triplicate, respectively. Variants with significant expression in response to PEA were determined by unpaired t tests (p<0.05). (C) Transfer curve of PtynA after 24 h of induction with DA, PEA, Tyra, and Trypta. PtynA was regulated by wild-type TynA and the A81L FeaR mutant. Points represent experimental data while the line represents the fitted curve (see e.g., TABLE 2). […] Values and error bars are the average and standard deviation of biological triplicate, respectively. (D) Reorganization of […] with respect to the size and hydropathy index of the 81st residue (see e.g., TABLE 3). The blue area represents characteristic values that permit binding of Tyra. See also FIG. 20-FIG. 25.
Noting the PEA selectivity given by the A81T mutation and the smallest size of the PEA-aldehyde (no OH group), followed by that of Tyra—(1 OH), DA—(2 OHs), and Trypta—(additional 5-membered ring) aldehyde (see e.g., FIG. 3A), it was hypothesized that small residues, including alanine as in wild-type FeaR, would cause ligand promiscuity, with ligand size-dependent response as shown in FIG. 3D. Slightly larger residues such as threonine would have improved selectivity toward the smallest PEA-aldehyde, but much larger or charged residues may fully eliminate ligand binding. It was also hypothesized that the hydropathy index of the 81st residue may also play a role in the sensor's performance due to differences in ligand polarities caused by the different number of hydroxyl groups. […] To test this prediction, A81 was mutated and each mutant was paired with the promiscuous wild-type TynA (see e.g., FIG. 5B). Consistent with the predictions, A81L, A81P, A81 I, and A81N were identified as PEA-specific variants, with 580-fold induction for the A81L sensor (see e.g., FIG. 5C). […] As predicted a clear pattern between the identity of residue 81 and ligand selectivity was observed (see e.g., FIG. 5D, TABLE 3).
as §2

[4] = pAGR473, FIG. 2G, 8 h, repressible
[5] = wild-type TyrR, pAGR010, FIG. 1C, 8 h

T5 sequence (P07604 whole entry): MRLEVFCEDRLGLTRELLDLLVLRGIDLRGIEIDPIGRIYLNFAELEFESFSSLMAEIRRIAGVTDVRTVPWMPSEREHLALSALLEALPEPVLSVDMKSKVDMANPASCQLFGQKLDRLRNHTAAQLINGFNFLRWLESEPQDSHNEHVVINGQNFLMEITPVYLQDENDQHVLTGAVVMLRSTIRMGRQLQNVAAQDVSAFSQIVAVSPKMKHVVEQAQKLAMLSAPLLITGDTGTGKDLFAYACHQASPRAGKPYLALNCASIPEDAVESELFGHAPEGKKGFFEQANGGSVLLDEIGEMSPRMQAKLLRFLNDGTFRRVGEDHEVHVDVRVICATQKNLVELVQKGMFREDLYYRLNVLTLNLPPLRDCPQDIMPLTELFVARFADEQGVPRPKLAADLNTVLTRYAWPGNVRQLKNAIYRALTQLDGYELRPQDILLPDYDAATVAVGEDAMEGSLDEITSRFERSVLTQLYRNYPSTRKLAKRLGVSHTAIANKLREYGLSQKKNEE
T4 sequence (P07604 whole entry R10F): as the sequence (P07604 whole entry) above, with R10F counted along it
T6 sequence (P07604 whole entry D103S/E274Q): as the sequence (P07604 whole entry) above, with D103S, E274Q counted along it
T7 sequence (P07604 whole entry T14V/E274Q): as the sequence (P07604 whole entry) above, with T14V, E274Q counted along it

N[C@@H](Cc1c[nH]c2ccc(O)cc12)C(=O)O [5-HTP, 5-hydroxytryptophan] was tested, and the “fold repression of GFP expression” value (WT TrpR) was 20 fold, the fold repression (TrpR variant OD) was “about 7 fold” and the fold repression (TrpR variant O1) was “about 15 fold”.

With O=C(O)Cc1ccc(O)c(O)c1 [DOPAC, 3,4-dihydroxyphenylacetic acid] the “response of the sensors” value [1] was “No sensors significantly responded”.

With O=C(O)Cc1ccc(O)cc1 [HPAA, 4-hydroxyphenylacetic acid] the “response of the sensors” value [1] was “No sensors significantly responded”.

With O=C(O)Cc1c[nH]c2ccccc12 [IAA, indole-3-acetic acid] the “response of the sensors” value [1] was “No sensors significantly responded”.

With O=C(O)Cc1ccccc1 [PAA, phenylacetic acid] the “response of the sensors” value [1] was “No sensors significantly responded”.

For N[C@@H](Cc1ccc(O)cc1)C(=O)O [Tyrosine, tyrosine], the response [2] was “lack of response”, the EC50 (R10F TyrR; KA (half maximal constant), pAGR473, FIG. 2G, 8 h, repressible) was 50 µM and 47 µM and the “fold repression of PtyrP” value (R10F TyrR; independent of the presence of Phe, listed as Tyr) was ~12 fold and 15 fold. For the same molecule, the Fmax (R10F TyrR; [4]) was 3210, the Fmin (R10F TyrR; [4]) was 279 and the “n (Hill coefficient)” value (R10F TyrR; [4]) was 2.3. The “fold repression of PtyrP” value (wild-type TyrR; overexpression of wild-type TyrR) was 59 fold, the Fmax (wild-type TyrR; [5]) was 2470 and the Fmin (wild-type TyrR; [5]) was 38.1. For the same molecule, the “n (Hill coefficient)” value (wild-type TyrR; [5]) was 1.9, the EC50 (wild-type TyrR; wild-type TyrR, pAGR010, FIG. 1C, 8 h, read-out: KA (half maximal constant)) was 26 µM and the “response of PtyrP” value (E274Q+D103S TyrR) was “lack of response; also recorded: no apparent response”. For the same molecule, the “response of PtyrP” value (E274Q+T14V TyrR) was “lack of response; also recorded: no apparent response” and the response [3] was “lack of response”.

B1: Leucine (L): FeaR variant with leucine in the 81st position, paired with wild-type TynA (protein, UniProt Q47129 1-301, looked up, variant A81L)
Transcriptional activator FeaR: MNPAVDNEFQQWLSQINQVCGNFTGRLLTERYTGVLDTHFAKGLKLSTVTTSGVNLSRTWQEVKGSDDAWFYTVFQLSGQLIMEQDERQVQIGAGDITLLDASRPCSLYWQESSKQISLLLPRTLLEQYFPHQKPICAERLDADLPMVQLSHRLLQESMNNPALSETESEAALQAMVCLLRPVLHQRESVQPRRERQFQKVVTLIDDNIREEILRPEWIAGETGMSVRSLYRMFADKGLVVAQYIRNRRLDFCADAIRHAADDEKLAGIGFHWGFSDQSHFSTVFKQRFGMTPGEYRRKFR
For B1, the Phenotype (PtynA) was “PEA specific” and the Selectivity (PtynA) was “PEA only”.

B2: Glutamine (Q): FeaR variant with glutamine in the 81st position, paired with wild-type TynA (protein, UniProt Q47129 1-301, looked up, variant A81Q)
Transcriptional activator FeaR: B1 Transcriptional activator FeaR with L81Q
In the case of B2, the Phenotype (PtynA) is reported as “No activity” and the Selectivity (PtynA) is reported as “No activity”.

B3: Phenylalanine (F): FeaR variant with phenylalanine in the 81st position, paired with wild-type TynA (protein, UniProt Q47129 1-301, looked up, variant A81F)
Transcriptional activator FeaR: B1 Transcriptional activator FeaR with L81F
In the case of B3, the Phenotype (PtynA) is reported as “No activity” and the Selectivity (PtynA) is reported as “No activity”.

Source: patent publication US20220372585A1, “Sensors for Aromatic Compounds and Methods of Making and Using Same” (Washington University, priority 2021, published 2022)
